In test [1] the target is T1, N-type calcium channel (Homo sapiens, UniProt Q00975). Nature of the test: N-type calcium channel antagonistic activity, changed procedure (fluorescence dye method, calculated from inhibition rates). In kind it is cell-based. The settings on record: IMR-32 cells, 60 mM KCl stimulation, Table 3, read-out: N-type inhibition pIC50 (converted).
Test [2] addresses T1, N-type calcium channel. Nature of the test: Antagonistic activity on N-type calcium channel (fluorescence dye method). It is filed as cell-based.

T1 sequence (Q00975 whole entry): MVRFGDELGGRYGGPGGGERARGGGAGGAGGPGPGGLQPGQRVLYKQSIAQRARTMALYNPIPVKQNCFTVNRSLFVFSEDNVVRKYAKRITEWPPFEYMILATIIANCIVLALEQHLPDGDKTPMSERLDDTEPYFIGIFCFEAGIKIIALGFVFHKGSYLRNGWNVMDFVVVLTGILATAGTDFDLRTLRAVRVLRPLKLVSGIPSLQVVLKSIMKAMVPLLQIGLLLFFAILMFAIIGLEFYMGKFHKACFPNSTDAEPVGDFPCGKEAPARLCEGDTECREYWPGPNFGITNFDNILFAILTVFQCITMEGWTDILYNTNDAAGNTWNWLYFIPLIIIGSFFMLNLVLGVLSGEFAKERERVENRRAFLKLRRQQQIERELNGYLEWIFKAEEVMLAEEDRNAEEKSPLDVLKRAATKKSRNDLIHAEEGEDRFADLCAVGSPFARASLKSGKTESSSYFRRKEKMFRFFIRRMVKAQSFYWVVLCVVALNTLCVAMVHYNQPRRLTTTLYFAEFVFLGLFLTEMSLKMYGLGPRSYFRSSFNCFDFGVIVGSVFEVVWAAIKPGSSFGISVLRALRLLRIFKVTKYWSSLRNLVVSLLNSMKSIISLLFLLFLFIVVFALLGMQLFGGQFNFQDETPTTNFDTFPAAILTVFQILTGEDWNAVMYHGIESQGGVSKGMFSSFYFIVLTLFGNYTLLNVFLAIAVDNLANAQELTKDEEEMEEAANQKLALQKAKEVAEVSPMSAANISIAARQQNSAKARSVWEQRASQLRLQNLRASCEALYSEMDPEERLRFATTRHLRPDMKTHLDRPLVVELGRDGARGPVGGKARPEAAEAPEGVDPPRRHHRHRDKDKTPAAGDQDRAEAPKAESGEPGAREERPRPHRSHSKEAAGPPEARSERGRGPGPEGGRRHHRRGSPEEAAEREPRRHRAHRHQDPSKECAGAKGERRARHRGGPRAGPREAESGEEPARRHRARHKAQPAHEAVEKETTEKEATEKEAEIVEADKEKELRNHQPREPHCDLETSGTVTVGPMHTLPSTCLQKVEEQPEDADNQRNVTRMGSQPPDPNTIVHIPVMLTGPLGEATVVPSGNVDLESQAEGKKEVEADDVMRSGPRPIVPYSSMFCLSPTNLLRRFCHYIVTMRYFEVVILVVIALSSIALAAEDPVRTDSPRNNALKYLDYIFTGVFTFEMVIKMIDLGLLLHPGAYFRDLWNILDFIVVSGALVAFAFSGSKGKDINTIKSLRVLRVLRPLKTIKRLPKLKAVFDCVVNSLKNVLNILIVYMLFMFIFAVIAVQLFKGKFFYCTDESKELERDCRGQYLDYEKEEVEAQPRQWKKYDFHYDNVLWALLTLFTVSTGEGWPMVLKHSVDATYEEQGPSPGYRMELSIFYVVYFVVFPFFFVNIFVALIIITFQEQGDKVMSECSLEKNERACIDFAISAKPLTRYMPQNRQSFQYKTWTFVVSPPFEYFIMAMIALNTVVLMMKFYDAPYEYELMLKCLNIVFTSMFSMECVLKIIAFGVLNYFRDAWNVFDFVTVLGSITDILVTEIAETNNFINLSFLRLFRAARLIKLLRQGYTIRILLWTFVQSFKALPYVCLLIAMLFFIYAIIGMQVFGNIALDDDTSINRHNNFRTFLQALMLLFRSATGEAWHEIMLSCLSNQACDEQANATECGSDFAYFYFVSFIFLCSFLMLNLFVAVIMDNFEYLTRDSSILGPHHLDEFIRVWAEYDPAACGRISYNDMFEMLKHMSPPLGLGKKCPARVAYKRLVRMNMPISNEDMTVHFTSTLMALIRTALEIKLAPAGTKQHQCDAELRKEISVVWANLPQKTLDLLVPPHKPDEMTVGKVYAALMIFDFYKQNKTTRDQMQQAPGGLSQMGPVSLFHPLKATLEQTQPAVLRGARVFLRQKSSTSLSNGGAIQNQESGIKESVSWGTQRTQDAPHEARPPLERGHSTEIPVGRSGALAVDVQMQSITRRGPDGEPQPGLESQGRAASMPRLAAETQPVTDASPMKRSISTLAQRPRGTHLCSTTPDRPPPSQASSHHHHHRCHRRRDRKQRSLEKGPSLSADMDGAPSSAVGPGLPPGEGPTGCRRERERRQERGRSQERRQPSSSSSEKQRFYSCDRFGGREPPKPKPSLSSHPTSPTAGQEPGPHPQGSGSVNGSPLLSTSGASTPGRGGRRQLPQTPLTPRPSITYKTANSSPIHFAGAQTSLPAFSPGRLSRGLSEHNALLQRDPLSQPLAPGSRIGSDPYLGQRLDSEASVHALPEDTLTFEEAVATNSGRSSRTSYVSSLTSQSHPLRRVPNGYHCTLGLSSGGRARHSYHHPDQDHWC
T1 sequence (P54284 whole entry partner): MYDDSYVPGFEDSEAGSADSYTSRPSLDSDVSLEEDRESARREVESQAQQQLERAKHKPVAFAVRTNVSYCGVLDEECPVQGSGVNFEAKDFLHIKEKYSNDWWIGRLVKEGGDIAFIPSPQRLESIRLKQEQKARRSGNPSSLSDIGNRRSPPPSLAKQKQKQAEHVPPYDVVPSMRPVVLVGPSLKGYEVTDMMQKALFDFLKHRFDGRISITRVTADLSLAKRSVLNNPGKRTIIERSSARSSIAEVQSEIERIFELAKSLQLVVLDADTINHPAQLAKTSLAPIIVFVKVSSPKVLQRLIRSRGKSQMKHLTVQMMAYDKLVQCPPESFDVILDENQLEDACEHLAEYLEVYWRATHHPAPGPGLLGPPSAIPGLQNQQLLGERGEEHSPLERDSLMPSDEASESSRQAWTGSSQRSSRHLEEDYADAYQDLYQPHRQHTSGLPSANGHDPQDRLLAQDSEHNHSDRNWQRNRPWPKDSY
T1 sequence (P54289 25-956 partner limits assumed): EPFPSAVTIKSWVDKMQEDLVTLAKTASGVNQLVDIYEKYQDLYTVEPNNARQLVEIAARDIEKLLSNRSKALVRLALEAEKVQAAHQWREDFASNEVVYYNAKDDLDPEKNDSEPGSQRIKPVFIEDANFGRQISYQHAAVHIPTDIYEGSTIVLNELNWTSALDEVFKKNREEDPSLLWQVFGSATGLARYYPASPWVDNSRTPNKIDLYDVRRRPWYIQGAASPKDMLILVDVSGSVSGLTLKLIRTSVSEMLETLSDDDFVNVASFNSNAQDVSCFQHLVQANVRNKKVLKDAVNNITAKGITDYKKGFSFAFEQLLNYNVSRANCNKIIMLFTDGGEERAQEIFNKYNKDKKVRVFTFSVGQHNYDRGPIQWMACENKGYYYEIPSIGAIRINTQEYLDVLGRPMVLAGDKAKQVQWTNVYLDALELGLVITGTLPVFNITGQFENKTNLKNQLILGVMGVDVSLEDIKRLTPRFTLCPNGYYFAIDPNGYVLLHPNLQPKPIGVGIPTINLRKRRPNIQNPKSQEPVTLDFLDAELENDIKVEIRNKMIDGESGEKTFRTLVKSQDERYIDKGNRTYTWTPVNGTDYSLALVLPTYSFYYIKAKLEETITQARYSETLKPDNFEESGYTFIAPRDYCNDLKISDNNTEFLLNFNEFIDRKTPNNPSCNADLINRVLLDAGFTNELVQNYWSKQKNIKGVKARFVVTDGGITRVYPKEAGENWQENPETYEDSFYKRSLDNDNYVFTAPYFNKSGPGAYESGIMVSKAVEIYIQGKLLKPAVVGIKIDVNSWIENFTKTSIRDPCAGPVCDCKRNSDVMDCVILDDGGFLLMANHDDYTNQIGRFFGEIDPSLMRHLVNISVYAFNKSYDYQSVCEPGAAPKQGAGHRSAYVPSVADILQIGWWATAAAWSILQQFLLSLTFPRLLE
T1 sequence (P54289 957-1103 partner limits assumed): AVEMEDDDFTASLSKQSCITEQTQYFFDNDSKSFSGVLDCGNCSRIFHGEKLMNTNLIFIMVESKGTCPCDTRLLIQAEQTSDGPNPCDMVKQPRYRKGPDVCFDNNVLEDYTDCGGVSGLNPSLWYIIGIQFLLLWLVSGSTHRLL

For the compound `[N-]=[N+]=NCCOCC1=C(C(=O)NCCC(c2ccccc2)c2ccccc2)C(c2cccc(Cl)c2)NC(=O)N1` (stereo not shown) [Example 15, 6-(2-azidoethoxymethyl)-4-(3-chlorophenyl)-2-oxo-1,2,3,4-tetrahydropyrimidine-5-carboxylic acid (3,3-diphenylpropyl)amide], the IC50 in test [1] was 2510 nM. With `O=C(NC/C=C/c1ccccc1)C1=C(COCCC2CCCCC2)NC(c2ccccc2)=NC1c1cccc(Cl)c1` (stereo not shown) [Example 2, 4-(3-chlorophenyl)-6-[(2-cyclohexylethoxy)methyl]-2-phenyl-5-[(3-phenyl-2-propene-1-yl)-carbamoyl]-1,4-dihydropyrimidine], in test [2], the IC50 was 5890 nM. Take `CC1=C(C(=O)NCCC(c2ccccc2)c2ccccc2)C(c2cccc(Cl)c2)NC(=O)N1` (stereo not shown) [Example 3, 4-(3-chlorophenyl)-6-methyl-2-oxo-1,2,3,4-tetrahydropyrimidine-5-carboxylic acid (3,3-diphenylpropyl)amide]: the figures for the IC50 in test [2] and in test [1] were 891 nM and 2510 nM, respectively. In the case of `COCC1=C(C(=O)NCCCc2ccccc2)C(c2cccc(Cl)c2)NC(=O)N1` (stereo not shown) [Example 6, 4-(3-chlorophenyl)-6-methoxymethyl-2-oxo-1,2,3,4-tetrahydropyrimidine-5-carboxylic acid (3-phenylpropyl)amide], the figures for the IC50 in test [2] and in test [1] were 977 nM and 5010 nM, respectively. Take `CCOC(=O)CN1C(=O)NC(C)=C(C(=O)NC/C=C/c2ccccc2)C1c1cccc(Cl)c1` (stereo not shown) [Example 45, ethyl [6-(3-chlorophenyl)-4-methyl-2-oxo-5-(3-phenyl-2-propene-1-ylcarbamoyl)-3,6-dihydro-2H-pyrimidine-1-yl]acetate]: in test [1], the IC50 was 3980 nM. With `CC1=C(C(=O)NCCC(c2ccccc2)c2ccccc2)C(c2cccc(Cl)c2)N=C(c2ccccc2)N1` (stereo not shown) [Example 67, 4-(3-chlorophenyl)-6-methyl-2-phenyl-1,4-dihydro-pyrimidine-5-carboxylic acid (3,3-diphenylpropyl)amide], the IC50 in test [1] is 1580 nM. Same read-out and setting: the same measure for `CC1=C(C(=O)NCCC(c2ccccc2)c2ccccc2)C(c2ccc(Cl)c(Cl)c2)N=C(c2cccnc2)N1` (stereo not shown) [Example 64, 4-(3,4-dichlorophenyl)-6-methyl-2-pyridine-3-yl-1,4-dihydropyrimidine-5-carboxylic acid (3,3-diphenylpropyl)amide]: 1260 nM; for `CC1=C(C(=O)NC/C=C/c2ccccc2)C(c2cccc(Cl)c2)N=C(c2ccccc2)N1` (stereo not shown) [Example 68, 4-(3-chlorophenyl)-6-methyl-2-phenyl-1,4-dihydropyrimidine-5-carboxylic acid (3-phenyl-2-propene-1-yl)amide]: 1260 nM. In the case of `O=C(NCCC(c1ccccc1)c1ccccc1)C1=C(COCCC2CCCCC2)NC(c2ccccc2)=NC1c1cccc(Cl)c1` (stereo not shown) [Example 1, 4-(3-chlorophenyl)-6-[(2-cyclohexylethoxy)methyl]-5-(3,3-diphenylpropylcarbamoyl)-2-phenyl-1,4-dihydropyrimidine], the IC50 in test [2] is 1260 nM; in test [1], 7940 nM. With `CC1=C(C(=O)NC/C=C/c2ccccc2)C(c2ccc(Cl)c(Cl)c2)N=C(c2ccccc2)N1` (stereo not shown) [Example 75, 4-(3,4-dichlorophenyl)-6-methyl-2-phenyl-1,4-dihydropyrimidine-5-carboxylic acid (3-phenyl-2-propene-1-yl)amide], the IC50 in test [1] is 2000 nM.

Source of the values: patent US6855716B2, “Dihydropyrimidine compounds and compositions containing the same” (Ajinomoto Co., Inc., priority 1999, dated 2005).
